Experimental findings from ChEMBL document CHEMBL1132011, “The synthesis of ketomethylene pseudopeptide analogues of dipeptide aldehyde inhibitors of calpain” (Bioorg Med Chem Lett, 1999) are described below.

Non-standard residues stand in square brackets, D forms with d. Residues, ends and D or L forms follow the SMILES beside them. ξ: configuration not given here. *: point of attachment. ξF = NC(Cc1ccccc1)C(=O)O; Cbz = O=C(OCc1ccccc1)*

The target in this experiment is T1, Calpain-1 catalytic subunit (Gallus gallus, UniProt P00789).
T1 sequence (P00789 whole entry): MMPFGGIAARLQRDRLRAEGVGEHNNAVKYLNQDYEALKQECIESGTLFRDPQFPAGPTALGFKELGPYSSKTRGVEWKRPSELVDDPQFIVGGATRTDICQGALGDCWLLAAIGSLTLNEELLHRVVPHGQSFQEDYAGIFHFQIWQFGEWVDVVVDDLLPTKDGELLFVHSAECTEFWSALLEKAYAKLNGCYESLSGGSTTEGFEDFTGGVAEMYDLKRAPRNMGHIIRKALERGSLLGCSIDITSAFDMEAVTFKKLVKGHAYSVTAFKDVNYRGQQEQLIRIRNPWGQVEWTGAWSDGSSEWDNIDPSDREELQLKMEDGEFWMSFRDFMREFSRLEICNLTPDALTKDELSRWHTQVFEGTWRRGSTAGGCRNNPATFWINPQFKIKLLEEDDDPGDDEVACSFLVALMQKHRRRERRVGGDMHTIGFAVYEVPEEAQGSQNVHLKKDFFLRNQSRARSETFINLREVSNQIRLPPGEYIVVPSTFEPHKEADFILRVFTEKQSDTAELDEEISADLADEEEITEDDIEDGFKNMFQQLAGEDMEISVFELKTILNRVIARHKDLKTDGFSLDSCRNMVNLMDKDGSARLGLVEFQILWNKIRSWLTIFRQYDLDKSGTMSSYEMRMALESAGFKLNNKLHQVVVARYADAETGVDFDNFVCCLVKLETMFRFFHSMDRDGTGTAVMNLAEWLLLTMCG
The experiment in a line: Inhibitory activity against chicken gizzard smooth muscle calpain.
With `CC(C=O)CC(=O)[C@@H](NC(=O)OCc1ccccc1)C(C)C` (stereo partly drawn), the Ki (usually the dissociation constant of the complex between target and ligand, obtained from inhibition or displacement) amounted to 45000 nM. Compound `CC(C)[C@H](NC(=O)OCc1ccccc1)C(=O)C[C@H](C=O)Cc1ccccc1` returned an inhibitory constant (Ki) of 2500 nM. The figure for `CC(C)[C@H](NC(=O)OCc1ccccc1)C(=O)NC(C=O)Cc1ccccc1` (stereo partly drawn) (Cbz-Val-[ξF]-aldehyde) is 10 nM.
